Data reported in the NIST ThermoML archive (doi:10.1021/acs.jced.9b00752).
± gives the expanded uncertainty stated by the source.

Test: mn = molality of the nth substance listed, in mol/kg
Details: 100 kPa, Liquid, Vibrating tube method

N[C@@H](Cc1c[nH]cn1)C(=O)O [L-histidine] + O
mass density (278.65 K, m1 = 0.0078): 1000.43 ± 0.12 kg/m3 | mass density (278.65 K, m1 = 0.0176): 1001 ± 0.12 kg/m3 | mass density (278.65 K, m1 = 0.0269): 1001.6 ± 0.12 kg/m3 | mass density (278.65 K, m1 = 0.048): 1002.82 ± 0.12 kg/m3 | mass density (278.65 K, m1 = 0.0636): 1003.84 ± 0.12 kg/m3 | mass density (278.65 K, m1 = 0.0856): 1005.07 ± 0.12 kg/m3 | mass density (278.65 K, m1 = 0.0982): 1005.82 ± 0.12 kg/m3 | mass density (278.65 K, m1 = 0.115): 1006.7 ± 0.12 kg/m3 | mass density (278.65 K, m1 = 0.1268): 1007.49 ± 0.12 kg/m3 | mass density (278.65 K, m1 = 0.138): 1008.16 ± 0.12 kg/m3 | mass density (278.65 K, m1 = 0.1586): 1009.47 ± 0.12 kg/m3 | mass density (279.15 K, m1 = 0.0078): 1000.42 ± 0.12 kg/m3 | mass density (279.15 K, m1 = 0.0176): 1000.98 ± 0.12 kg/m3 | mass density (279.15 K, m1 = 0.0269): 1001.58 ± 0.12 kg/m3 | mass density (279.15 K, m1 = 0.048): 1002.8 ± 0.12 kg/m3 | mass density (279.15 K, m1 = 0.0636): 1003.82 ± 0.12 kg/m3 | mass density (279.15 K, m1 = 0.0856): 1005.05 ± 0.12 kg/m3 | mass density (279.15 K, m1 = 0.0982): 1005.8 ± 0.12 kg/m3 | mass density (279.15 K, m1 = 0.115): 1006.68 ± 0.12 kg/m3 | mass density (279.15 K, m1 = 0.1268): 1007.46 ± 0.12 kg/m3 | mass density (279.15 K, m1 = 0.138): 1008.13 ± 0.12 kg/m3 | mass density (279.15 K, m1 = 0.1586): 1009.44 ± 0.12 kg/m3 | mass density (279.65 K, m1 = 0.0078): 1000.4 ± 0.12 kg/m3 | mass density (279.65 K, m1 = 0.0176): 1000.97 ± 0.12 kg/m3 | mass density (279.65 K, m1 = 0.0269): 1001.56 ± 0.12 kg/m3 | mass density (279.65 K, m1 = 0.048): 1002.78 ± 0.12 kg/m3 | mass density (279.65 K, m1 = 0.0636): 1003.79 ± 0.12 kg/m3 | mass density (279.65 K, m1 = 0.0856): 1005.02 ± 0.12 kg/m3 | mass density (279.65 K, m1 = 0.0982): 1005.77 ± 0.12 kg/m3 | mass density (279.65 K, m1 = 0.115): 1006.65 ± 0.12 kg/m3 | mass density (279.65 K, m1 = 0.1268): 1007.43 ± 0.12 kg/m3 | mass density (279.65 K, m1 = 0.138): 1008.1 ± 0.12 kg/m3 | mass density (279.65 K, m1 = 0.1586): 1009.41 ± 0.12 kg/m3 | mass density (280.15 K, m1 = 0.0078): 1000.38 ± 0.12 kg/m3 | mass density (280.15 K, m1 = 0.0176): 1000.94 ± 0.12 kg/m3 | mass density (280.15 K, m1 = 0.0269): 1001.53 ± 0.12 kg/m3 | mass density (280.15 K, m1 = 0.048): 1002.75 ± 0.12 kg/m3 | mass density (280.15 K, m1 = 0.0636): 1003.76 ± 0.12 kg/m3 | mass density (280.15 K, m1 = 0.0856): 1004.99 ± 0.12 kg/m3 | mass density (280.15 K, m1 = 0.0982): 1005.74 ± 0.12 kg/m3 | mass density (280.15 K, m1 = 0.115): 1006.62 ± 0.12 kg/m3 | mass density (280.15 K, m1 = 0.1268): 1007.39 ± 0.12 kg/m3 | mass density (280.15 K, m1 = 0.138): 1008.06 ± 0.12 kg/m3 | mass density (280.15 K, m1 = 0.1586): 1009.37 ± 0.12 kg/m3 | mass density (280.65 K, m1 = 0.0078): 1000.36 ± 0.12 kg/m3 | mass density (280.65 K, m1 = 0.0176): 1000.92 ± 0.12 kg/m3 | mass density (280.65 K, m1 = 0.0269): 1001.51 ± 0.12 kg/m3 | mass density (280.65 K, m1 = 0.048): 1002.73 ± 0.12 kg/m3 | mass density (280.65 K, m1 = 0.0636): 1003.73 ± 0.12 kg/m3 | mass density (280.65 K, m1 = 0.0856): 1004.96 ± 0.12 kg/m3 | mass density (280.65 K, m1 = 0.0982): 1005.71 ± 0.12 kg/m3 | mass density (280.65 K, m1 = 0.115): 1006.58 ± 0.12 kg/m3 | mass density (280.65 K, m1 = 0.1268): 1007.36 ± 0.12 kg/m3 | mass density (280.65 K, m1 = 0.138): 1008.03 ± 0.12 kg/m3 | mass density (280.65 K, m1 = 0.1586): 1009.33 ± 0.12 kg/m3 | mass density (281.15 K, m1 = 0.0078): 1000.33 ± 0.12 kg/m3 | mass density (281.15 K, m1 = 0.0176): 1000.89 ± 0.12 kg/m3 | mass density (281.15 K, m1 = 0.0269): 1001.48 ± 0.12 kg/m3 | mass density (281.15 K, m1 = 0.048): 1002.69 ± 0.12 kg/m3 | mass density (281.15 K, m1 = 0.0636): 1003.7 ± 0.12 kg/m3 | mass density (281.15 K, m1 = 0.0856): 1004.92 ± 0.12 kg/m3 | mass density (281.15 K, m1 = 0.0982): 1005.67 ± 0.12 kg/m3 | mass density (281.15 K, m1 = 0.115): 1006.54 ± 0.12 kg/m3 | mass density (281.15 K, m1 = 0.1268): 1007.32 ± 0.12 kg/m3 | mass density (281.15 K, m1 = 0.138): 1007.99 ± 0.12 kg/m3 | mass density (281.15 K, m1 = 0.1586): 1009.28 ± 0.12 kg/m3 | mass density (281.65 K, m1 = 0.0078): 1000.29 ± 0.12 kg/m3 | mass density (281.65 K, m1 = 0.0176): 1000.85 ± 0.12 kg/m3 | mass density (281.65 K, m1 = 0.0269): 1001.44 ± 0.12 kg/m3 | mass density (281.65 K, m1 = 0.048): 1002.65 ± 0.12 kg/m3 | mass density (281.65 K, m1 = 0.0636): 1003.66 ± 0.12 kg/m3 | mass density (281.65 K, m1 = 0.0856): 1004.88 ± 0.12 kg/m3 | mass density (281.65 K, m1 = 0.0982): 1005.63 ± 0.12 kg/m3 | mass density (281.65 K, m1 = 0.115): 1006.5 ± 0.12 kg/m3 | mass density (281.65 K, m1 = 0.1268): 1007.27 ± 0.12 kg/m3 | mass density (281.65 K, m1 = 0.138): 1007.94 ± 0.12 kg/m3 | mass density (281.65 K, m1 = 0.1586): 1009.24 ± 0.12 kg/m3 | mass density (282.15 K, m1 = 0.0078): 1000.26 ± 0.12 kg/m3 | mass density (282.15 K, m1 = 0.0176): 1000.82 ± 0.12 kg/m3 | mass density (282.15 K, m1 = 0.0269): 1001.41 ± 0.12 kg/m3 | mass density (282.15 K, m1 = 0.048): 1002.62 ± 0.12 kg/m3 | mass density (282.15 K, m1 = 0.0636): 1003.62 ± 0.12 kg/m3 | mass density (282.15 K, m1 = 0.0856): 1004.84 ± 0.12 kg/m3 | mass density (282.15 K, m1 = 0.0982): 1005.59 ± 0.12 kg/m3 | mass density (282.15 K, m1 = 0.115): 1006.46 ± 0.12 kg/m3 | mass density (282.15 K, m1 = 0.1268): 1007.23 ± 0.12 kg/m3 | mass density (282.15 K, m1 = 0.138): 1007.89 ± 0.12 kg/m3 | mass density (282.15 K, m1 = 0.1586): 1009.19 ± 0.12 kg/m3 | mass density (282.65 K, m1 = 0.0078): 1000.22 ± 0.12 kg/m3 | mass density (282.65 K, m1 = 0.0176): 1000.78 ± 0.12 kg/m3 | mass density (282.65 K, m1 = 0.0269): 1001.36 ± 0.12 kg/m3 | mass density (282.65 K, m1 = 0.048): 1002.57 ± 0.12 kg/m3 | mass density (282.65 K, m1 = 0.0636): 1003.58 ± 0.12 kg/m3 | mass density (282.65 K, m1 = 0.0856): 1004.79 ± 0.12 kg/m3 | mass density (282.65 K, m1 = 0.0982): 1005.54 ± 0.12 kg/m3 | mass density (282.65 K, m1 = 0.115): 1006.41 ± 0.12 kg/m3 | mass density (282.65 K, m1 = 0.1268): 1007.18 ± 0.12 kg/m3 | mass density (282.65 K, m1 = 0.138): 1007.84 ± 0.12 kg/m3 | mass density (282.65 K, m1 = 0.1586): 1009.13 ± 0.12 kg/m3 | mass density (283.15 K, m1 = 0.0078): 1000.18 ± 0.12 kg/m3 | mass density (283.15 K, m1 = 0.0176): 1000.73 ± 0.12 kg/m3 | mass density (283.15 K, m1 = 0.0269): 1001.32 ± 0.12 kg/m3 | mass density (283.15 K, m1 = 0.048): 1002.53 ± 0.12 kg/m3 | mass density (283.15 K, m1 = 0.0636): 1003.53 ± 0.12 kg/m3 | mass density (283.15 K, m1 = 0.0856): 1004.74 ± 0.12 kg/m3 | mass density (283.15 K, m1 = 0.0982): 1005.49 ± 0.12 kg/m3 | mass density (283.15 K, m1 = 0.115): 1006.36 ± 0.12 kg/m3 | mass density (283.15 K, m1 = 0.1268): 1007.13 ± 0.12 kg/m3 | mass density (283.15 K, m1 = 0.138): 1007.79 ± 0.12 kg/m3 | mass density (283.15 K, m1 = 0.1586): 1009.08 ± 0.12 kg/m3
